In brackets after ≈: the same amount, converted by molar mass. Read-outs that look alike come from different tables or passages of the source.
Assays:
Enterovirus 71 (EV71) = assay: Inhibition of EV71-induced cytopathogenicity (CPE) in Vero cells, MTT; assay type: cell-based; conditions: Enterovirus A, read-out: EC50 (µg/mL) Vero
Procedure: The antiviral activities of gramine and its derivatives against EV71 based on inhibition of virus-induced cytopathogenicity effects (CPEs) in African green monkey kidney cells (Vero) and rhabdomyosarcoma cells (RD) were examined. The cytotoxic effects were also evaluated. The inhibitory activities expressed as half maximal effective concentration (EC50) values and selectivity indexes (SI) for the target compounds are presented in Table 1, and the dose-dependent antiviral effects are shown in Figure 1A.
Figure 1 Gramine and its synthetic derivatives inhibited virus-induced CPE. (A) Vero cells were infected with 100 TCID50 of EV71 mixed with serial dilutions of tested compounds for 1.5 h at 37 °C; the inoculum was aspirated and cells were incubated with DMEM/tested compounds at 37 °C, 5% CO2 for 48 h pi. The viability of the cells was determined with an MTT assay; (B) Morphology image of Vero and RD cells treated with compounds 4a, 4i, 4r, and 4s for 48 h pi. (magnification, 20×).
The activity of compounds against EV71 was determined based on the inhibition of virus-induced cytopathogenicity effects (CPEs) in acutely infected cells. Vero and RD cells grown to 90% confluency in 96-well dishes were washed with phosphate buffered saline (PBS) and infected with 100 TCID50 of EV71 mixed with serial dilutions of tested compounds for 1.5 h at 37 °C. The inoculum was aspirated and cells were incubated with DMEM and test compounds at 37 °C, 5% CO2 for 48 h. The CPEs were observed microscopically and the viability of the cells was determined with a 3-(4,5-dimethylthiazol-2-yl)-2,5-diphenyltetrazolium bromide (MTT) assay. The concentrations required for the test compounds to achieve 50% protection from virus-induced cytopathogenicity (EC50) were determined. Adverse effects of these compounds on the host cells were also assessed by means of the MTT-method; by exposing uninfected cells to various concentrations of test compounds for 48 h at 37 °C, the viability of the cells was detected. The 50% cell cytotoxic concentrations (CC50) of compounds were calculated with the SPSS software (SPSS, Chicago, IL, USA). Selectivity indexes were calculated as the ratio of CC50: EC50.
(§1) Cell viability was assessed by an MTT assay, which functions based on the reduction of a MTT into formazan dye by active mitochondria. The cells were treated with 100 µL of MTT (1 mg/mL, Sigma, St. Louis, MO, USA) and incubated at 37 °C for 4 h. The reaction was blocked by DMSO and measured in a microplate reader (Bio-Tek Instruments, Winooski, VT, USA) at 492 nm. The untreated control was arbitrarily set as 100%.

EV71 [1] = assay: Analysis of effective stage (treatment before, during or post infection) in RD cells; assay type: cell-based, Enterovirus 71; conditions: for titers of virus from infected cells, treatment before infection (preventive effect): RD cells pretreated 2 h with 10 µg/mL 4a, 20 µg/mL 4i, 40 µg/mL 4r or 4s, 48 h; for inhibition of virus-induced CPEs, post-infection treatment: up to 40 µg/mL
Procedure: To identify the step in the viral life cycle that is affected by these compounds, the assays were performed using three different treatment protocols. […] For all treatments, cell viability and progeny virus yields were measured after 48 h of infection.
(§2) Figure 2 Analysis of modes of action against EV71 of gramine derivatives. Analysis of effective stage. The RD cells were treated with tested compounds before, simultaneously or after EV71 (100 TCID50) inoculation: antiviral effects were detected by measuring (A) cell viability and (B) progeny virus yields (10 µg/mL 4a, 20 µg/mL 4i, 40 µg/mL 4r and 4s) 48 h post infection; (C) Analysis of the effects on EV71 adsorption. Mock- or 10 µg/mL 4a, 20 µg/mL 4i, 40 µg/mL 4r and 4s-treated EV71 (10^4 TCID50) was spinoculated onto RD cells and adsorbed for 2 h; intracellular virus was subjected to titration using the TCID50 method; (D) Effects on EV71 release from RD cells. RD cells infected with 100 TCID50 of EV71 were incubated with 10 µg/mL 4a, 20 µg/mL 4i, 40 µg/mL 4r and 4s for 12 h, of both cells and supernatants (intra- and extracellular), or of cells or supernatants harvested separately for virus titration. […] Values represent the mean ± standard deviation of three independent experiments.
as §1
(§3) The virus suspension, serially diluted 10-fold with DMEM containing 2% FBS, was inoculated to cells in a 96-well plate. After 1 h incubation at 37 °C in 5% CO2, unbinding virus was washed out and MM was added to the cells. After 2 days, the infected cells were monitored for cytopathic effects (CPEs). The virus titer was calculated by the Reed–Muench method.

EV71 [2] = assay: Effect on EV71 release from RD cells; assay type: cell-based, Enterovirus 71; conditions: 10 µg/mL 4a, 20 µg/mL 4i, 40 µg/mL 4r or 4s after infection, supernatants and cells harvested together or separately at 12 h
Procedure: as §2
A possible effect of the compounds on viral release from cells was tested. The RD cells were treated with or without 10 µg/mL 4a, 20 µg/mL 4i, or 40 µg/mL 4r or 4s after EV71 infection, and the supernatants and cells were harvested together or separately for analysis of progeny virus yields at 12 h.
as §3

EV71 [3] = assay: Time-of-addition assay, progeny virus yield; assay type: cell-based, Enterovirus 71; conditions: compound present -1-10 h pi (similar for 0–10 h and 2–10 h); 10 µg/mL 4a, 20 µg/mL 4i, 40 µg/mL 4r or 4s; RD cells; 12 h pi
Procedure: To further understand the mechanisms of these gramine derivatives against EV71 propagation in cells, a time-of-addition experiment was performed. For this experiment, 10 µg/mL 4a, 20 µg/mL 4i, or 40 µg/mL 4r or 4s were added to infected cultures at different time periods (with 2 h intervals) and the reductions in virus yield relative to untreated cultures were determined at 12 h pi. […] With drugs treatments during other periods after EV71 infection, a gradual increase of viral yields was observed, reflecting the loss of the antiviral effects of the compounds. Results from this experiment indicate that these gramine derivatives may exert antiviral effects via the same action mechanism and mainly interfere with the early events of virus replication.
Figure 3 Time-of-addition assay. 10 µg/mL 4a, 20 µg/mL 4i, or 40 µg/mL 4r or 4s were added to RD cells at different time periods after EV71 infection. At 12 h pi, the progeny virus yield was determined (−1–0 h: viral infection period; 0–10 h: period for virus proliferation in the cells). Values are represented as the mean ± standard deviation.
Time-of-addition experiments were carried out, to estimate the point where the compound interfered with the replication cycle of EV71. The RD cells were infected with 100 TCID50 of EV71 and then 10 µg/mL 4a, 20 µg/mL 4i, or 40 µg/mL 4r or 4s was added at different time phases (−1–0 h, 0–10 h, 2–10 h, 4–10 h, 6–10 h, 8–10 h and −1–10 h pi, where −1–0 h is the viral infection period and 0–10 h is the period for virus proliferation in the cells). The cells and supernatants were harvested at […] and subjected to three freeze–thaw cycles, after which the viruses were titered by the Reed-Muench method.

[4] = concentration for 50% protection from virus-induced cytopathogenicity, Vero cells, 100 TCID50 EV71, 48 h, MTT, mean ± SD of three experiments
[5] = Enterovirus A, RD cells, 100 TCID50 EV71, 48 h, MTT, read-out: viability rate of infected cells, post-infection treatment

SMILES | EC50 (Enterovirus 71 (EV71); [4]) [µg/mL] | viability at 20 µg/mL (EV71 [1]; Enterovirus A, 20 µg/mL, RD cells, 100 TCID50 EV71, 48 h, MTT, read-out: viability rate of infected cells, post-infection treatment) [%] | titers of virus from infected cells, treatment before infection (preventive effect) (EV71 [1]) | effect on release of EV71 from cells (EV71 [2]) | titers of the progeny virus, time of addition (EV71 [3]) | EC50 (Enterovirus 71 (EV71); EV71, Vero, 48 h) [µg/mL] | viability at 40 µg/mL (EV71 [1]; [5]) [%] | inhibition of virus-induced CPEs, post-infection treatment (EV71 [1]; RD cells) | viability at 10 µg/mL (EV71 [1]; Enterovirus A, 10 µg/mL, RD cells, 100 TCID50 EV71, 48 h, MTT, read-out: viability rate of infected cells, post-infection treatment) [%] | inhibition of CPEs, post-infection treatment (EV71 [1]; at 40 µg/mL and 20 µg/mL, due to cytotoxic effects on cells)
Cn1cc(C(Nc2ccccn2)c2ccc(F)cc2)c2ccccc21 (centres unmarked) [Compound 4i] | 5.5 ± 1.6 (≈ 16.6 µM) | 90.5 | nearly the same as those from untreated cells | no effect on the release of EV71 | strongly reduced | – | – | – | – | –
c1ccc(C(Nc2nc3ccccc3s2)c2c[nH]c3ccccc23)nc1 (centres unmarked) [Compound 4s] | – | – | nearly the same as those from untreated cells | no effect on the release of EV71 | strongly reduced | 7.6 ± 2.5 (≈ 21.3 µM) | 95.7 | almost completely inhibited virus-induced CPEs | – | –
c1ccc(C(Nc2ccccn2)c2c[nH]c3ccccc23)cc1 (centres unmarked) [Compound 4a] | 12.7 ± 3.2 (≈ 42.4 µM) | – | nearly the same as those from untreated cells | no effect on the release of EV71 | strongly reduced | – | – | – | 85.8 | no inhibition of CPEs
Cn1cc(C(Nc2nc3ccccc3s2)c2ccccc2F)c2ccccc21 (centres unmarked) [Compound 4r] | 9.9 ± 1.4 (≈ 25.5 µM) | – | nearly the same as those from untreated cells | no effect on the release of EV71 | strongly reduced | – | 84.6 | almost completely inhibited virus-induced CPEs | – | –
